Experimental data: PMC10692228, “A simple method for developing lysine targeted covalent protein reagents” (Nature Communications, 2023)

Assays:
14-3-3σ = experiment: Covalent labeling of 14-3-3σ by peptides, intact protein LC/MS; assay type: binding, human; details: 5 µM peptide, 2 µM 14-3-3σ; for 14-3-3σ full peptide adduct (degree of labeling): 25 °C; for degree of labeling of 14-3-3σ: 37 C
Description: The LC/MS runs for 14-3-3σ were performed on a Waters ACQUITY UPLC class H instrument, in positive ion mode using electrospray ionization. […] The column was held at 40 °C and the autosampler at 10 °C. […] The run flow was 0.4 mL/min. […] The MS data were collected on a Waters SQD2 detector with an m/z range of 2–3071.98 at a range of 900–1900 m/z. The desolvation temperature was 500 °C with a flow rate of 800 L/h. The voltages used were 1.00 kV for the capillary and 24 V for the cone. MassLynx version 4.2 was used to operate the LCMS and analyze the data. Raw data were processed using openLYNX and deconvoluted using MaxEnt with a range of 28,000: 34,000 Da and a resolution of 1 Da/channel. […] For analysis, 24 μl sample was mixed with 6 μl of 2.4% formic acid in water and then 10 μl were injected to intact protein LCMS.

[1] = tested on: 14-3-3 proteins in A549 lysates; experiment: Labeling of 14-3-3 proteins by BODIPY-modified peptides in A549 lysates (SDS-PAGE fluorescence, western blot); assay type: binding; details: BODIPY-labeled derivatives of the peptides; 1 µM (peptides 3, 8) or 0.25 µM (peptide 12), lysate […], 25 °C, 1 h or 22 h
Description: A549 cells were obtained from biological services of the Weizmann Institute. For experiments in lysates, A549 cells were grown in DMEM + FBS. The cells were washed with PBS, scraped from the plate and centrifuged 200 × g for 5 min. […] Cells were incubated in the lysis buffer and centrifuged at 21,000 × g for 10 min at 4 °C. The protein concentration was estimated using BCA, and the lysate was diluted to 1.9 mg/ml in the lysis buffer. […] Then, 13.3 μl of 4X LDS samples buffer with 20 mM DTT was added and the samples were heated for 10 min at 70 °C. The samples were loaded on Bis-Tris gradient gels (4-20%, Genscript) and run using Tris-MOPS buffer at 60 mA/200 V. […] Images were processed and generated using ImageLab. […] Afterwards the gel was directly imaged in ChemiDoc. page 8: Supplementary Figure 7. Peptide binding selectivity in cell lysates and media. a) Raw images for the western blot experiment depicted in figure 5. Experiments was repeated 3 times. Top row: images for experiment done on A549 lysates. Bottom row: Images from extracellular medium. b) Direct gel imaging for experiment in which 1 μ[…] lysates at the indicated concentrations for 22 hours at 25°C. The same amount of lysate was loaded in each lane (28.5 μg). The intense fluorescence at the bottom comes from unbound peptide.

[2] = biological target: human 14-3-3σ with an N-terminal His6-tag (human) (UniProt P31947)
[3] = biological target: human 14-3-3σ with an N-terminal His6-tag (human) (UniProt P31947); remark: listed apart in the source
[4] = biological target: human 14-3-3σ with an N-terminal His6-tag (human) (UniProt P31947); remark: listed apart in the source
[5] = tested on: 14-3-3 proteins in extracellular medium of A549 cells; experiment: Detection of 14-3-3 proteins by BODIPY-modified peptides in extracellular medium of A549 cells; assay type: binding; details: BODIPY-labeled derivatives; concentrated serum-free medium of A549 cells grown 24 h or 48 h
Description: For experiments in medium, after growing the cells they were transferred to DMEM without FBS, followed by incubation for either 24 h or 48 h. After the incubation, 8.5 ml of the medium was filtered through a 0.2 µm filter, concentrated using a centrifugal concentrator (vivaspin, cutoff 8000–10,000 Da) to ~200 µl, and diluted to 8 ml using HEPES 50 mM pH = 7.5, 150 mM NaCl. This was followed by 2 additional rounds of dilution and concentration to ~200 µl. The samples were then diluted to 300 µl with IGEPAL added to 1% as well as protease inhibitors and PhosStop. 38 µl samples from the medium were then incubated with the peptides and analyzed as performed for the lysate, with 15 s exposure for fluorescence and 50 second exposure for chemiluminescence.

Sequence of UniProt P31947 (P31947 whole entry): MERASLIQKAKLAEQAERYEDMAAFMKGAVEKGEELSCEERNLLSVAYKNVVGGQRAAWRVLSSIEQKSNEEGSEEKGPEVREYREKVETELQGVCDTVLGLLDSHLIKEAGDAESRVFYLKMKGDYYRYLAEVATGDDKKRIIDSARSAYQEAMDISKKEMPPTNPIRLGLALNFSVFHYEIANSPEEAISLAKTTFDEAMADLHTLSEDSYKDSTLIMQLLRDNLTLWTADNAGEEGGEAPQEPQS

## Ac-RAH-(pT)-(mC)-PASLQ-NH2 [Peptide 8, Methacrylate phosphopeptide derived from YAP-1 (PDB 3MHR)]
14-3-3σ; intact protein LC/MS, time 0 h
  14-3-3σ full peptide adduct (degree of labeling): 0
14-3-3σ; time 1 h (60 min)
  14-3-3σ full peptide adduct (degree of labeling): 34.14
14-3-3σ; time 2.5 h (150 min)
  14-3-3σ full peptide adduct (degree of labeling): 55.96
14-3-3σ; time 5 h (300 min)
  14-3-3σ full peptide adduct (degree of labeling): 74.24
14-3-3σ; time 24 h (1440 min)
  14-3-3σ full peptide adduct (degree of labeling): 86.25
14-3-3σ; LC/MS, time 0 h
  degree of labeling of 14-3-3σ: 0
14-3-3σ; time 35 min
  degree of labeling of 14-3-3σ: 53.08
14-3-3σ; time 70 min
  degree of labeling of 14-3-3σ: 70.97
14-3-3σ; time 1.75 h
  degree of labeling of 14-3-3σ: 80.85
14-3-3σ; time 4 h
  degree of labeling of 14-3-3σ: 93.18
14-3-3σ; time 8 h
  degree of labeling of 14-3-3σ: 91.76
14-3-3σ; 37 °C versus 25 °C
  increase of the rate of labeling at 37 °C: roughly 4 fold
[1]
  labeling of proteins in A549 lysates: formed two main bands

## Peptide 11 (Ac-RAH-(pT)-SPAS-(mC)-Q-NH2)
[2]
  percent free 14-3-3σ remaining within 2.5 h: < 5%
[3]
  percent covalent labeling after 48 h: 100%
[4]
  percent covalent labeling (overnight, 200 µM peptide): 57%

## Peptide 8 (Ac-RAH-(pT)-(mC)-PASLQ-NH2)
[2]
  percent covalent labeling within 5 h: 80%
[3]
  percent covalent labeling after 48 h: 90%
[4]
  percent covalent labeling (overnight, 200 µM peptide): 35%

## Ac-RAH-(pT)-SPASL-X-NH2 [Peptide 12, reference compound]
[1]
  labeling of proteins in A549 lysates: selectively labeled 14-3-3σ and generated a single fluorescent band
[5]
  detection of 14-3-3 proteins in extracellular medium: 14-3-3σ was not detected

## Peptide 3 (Ac-RSA-(pT)-(mC)-PSL-NH2)
[2]
  percent covalent labeling within 5 h: 60%
[3]
  percent covalent labeling after 48 h: 75%
[4]
  percent covalent labeling (overnight, 200 µM peptide): 51%
